The values below come from US6521814B1, “Use of ligands for treatment of diseases responsive to retinoids” (Institut National de la Santa et de la Recherche Medicale, priority 1997, dated 2003).

In assay [1] the test system is RXRα−/−/RARα−/− F9 cells. The experiment in a line: Proliferation of F9 cells in monolayer culture (cell counting, [3H]thymidine incorporation, cell cycle FACS). Type of assay: cell-based, murine. Particulars: 6 d. (In general: Incorporation of labelled thymidine or its analogues reports DNA synthesis.)
In assay [2] the test system is WT F9 cells. The experiment in a line: Morphological differentiation of F9 cell aggregates into visceral endoderm (VE)-like cells (morphology, RT-PCR of markers). In kind it is cell-based, murine. Further details: key to proportion of outer layer of cells displaying VE morphology: +++: more than 80%; ++: 50-80%; +: 10-50%; ±: not more than 10%; (−): no visible effect. Particulars: WT, 10 d. From the text: (§1) Similarly, after 10 d of treatment, >80% of the outer layer of RARα^−/− and RXRα^−/−/RARα^−/− cell aggregates differentiated into VE-like cells, which were indistinguishable from those of WT and RXRα^−/− cells (FIG. 23A, compare f with panels b and d; and Table 9). […] To exclude the possibility that this very poor differentiation of the RXRα^−/−/RARγ^−/− cells could be due to some clonal variation, rather than the presence of the RXRα-null mutation in the RARγ-null background, we expressed the RXRα cDNA in RXRα^−/−/RARγ^−/− cells.
(§2) F9 cells were cultured and induced to differentiate into primitive, parietal and visceral endoderm-like cells as previously described (Boylan, J., et al., Proc. Natl. Acad. Sci. USA 90:9601-9605 (1993); Clifford, J., et al., EMBO J. 15:4142-4155 (1996)).
(§3) RNA preparation, RT-PCR, and Southern blotting were performed as previously described (Bouillet, P., et al., Dev. Biol. 170:420-433 (1995); Roy, B., et al., Mol. Cell. Biol. 15:6481-6487 (1995)). The PCR primers and end-labeled oligonucleotide probes for collagen IVα1, laminin B1, α-fetoprotein (AFP), and 36B4, were described previously (Clifford, J., et al ., EMBO J. 15:4142-4155 (1996)). Transcript levels were quantified using a BAS 2000 bioimaging analyzer (Fuji Ltd., Tokyo, Japan), and were normalized to the corresponding 36B4 signals.

For assay [3], the system named is RARα−/− F9 cells. Described as above. Conditions: 10 d. Further details: key to proportion of outer layer of cells displaying VE morphology: +++: more than 80%; ++: 50-80%; +: 10-50%; ±: not more than 10%; (−): no visible effect. In kind it is cell-based, murine.
Text: as §1, §2, §3

The test system of assay [4] is WT F9 cells. The experiment in a line: Apoptosis of F9 cells (Hoechst 33258 staining, FACS). Type of assay: cell-based, murine. Particulars: 6 d. As to the method:
(§4) Apoptosis was analyzed by both Hoechst staining of nuclei and FACS® analysis, as previously described (Clifford, J., et al., EMBO J. 15:4142-4155 (1996)).

Assay [5] deals with RARγ−/− F9 cells. The assay is described as above. Type of assay: cell-based, murine. Conditions: 6 d. As to the method: as §4
The subject of assay [6] is WT F9 cells. The experiment in a line: Proliferation of F9 cells in monolayer culture (cell counting, [3H]thymidine incorporation, cell cycle FACS). In kind it is cell-based, murine. Conditions: 6 d. The protocol:
(§5) Cells were plated in triplicate 3-cm culture wells (5×10^2 cells per well), and cell counting experiments were performed as previously described (Clifford, J., et al., EMBO J. 15:4142-4155 (1996)). [^3H]Thymidine incorporation assays were performed essentially as described (Clifford, J., et al., EMBO J. 15:4142-4155 (1996)), with the following modifications. […] The cell cycle profile of WT and mutant cells was determined as previously described (Clifford, J., et al. EMBO J. 15:4142-4155 (1996)).

The test system of assay [7] is RARγ−/− F9 cells. Described as above. Type of assay: cell-based, murine. Particulars: 6 d. The protocol:
as §5

Assay [8] has as its system RARα−/− F9 cells. Described as above. Type of assay: cell-based, murine. Conditions: 6 d. The protocol: as §5
The next assay relates to RXRα−/−/RARγ−/− F9 cells. The assay is described as above. Conditions: 6 d. Type of assay: cell-based, murine.
For assay [9], the system named is RXRα−/− F9 cells. Described as above. In kind it is cell-based, murine. Conditions: 6 d.
Assay [10] concerns RARγ−/− F9 cells. The experiment in a line: Morphological differentiation of F9 cell aggregates into visceral endoderm (VE)-like cells (morphology, RT-PCR of markers). Details: key to proportion of outer layer of cells displaying VE morphology: +++: more than 80%; ++: 50-80%; +: 10-50%; ±: not more than 10%; (−): no visible effect. Particulars: RARγ−/−, 10 d. Type of assay: cell-based, murine. The protocol:
as §2, §3

Assay [11] deals with RARα−/− F9 cells. The experiment in a line: Apoptosis of F9 cells (Hoechst 33258 staining, FACS). In kind it is cell-based, murine. Details: key: (−): no visible effect. Conditions: 6 d. As to the method: as §4
Assay [12] relates to RXRα−/−/RARα−/− F9 cells. The description is as above. In kind it is cell-based, murine. Particulars: 100 nM, 6 d.
For assay [13], the system named is RXRα−/− F9 cells. The description is as above. In kind it is cell-based, murine. Particulars: 100 nM, 6 d.
In a further assay the target is mouse RXRγ (mouse) (UniProt P28705). The experiment in a line: cell-based or functional assay.
Chain of mouse RXRγ (mouse) (P28705 whole entry): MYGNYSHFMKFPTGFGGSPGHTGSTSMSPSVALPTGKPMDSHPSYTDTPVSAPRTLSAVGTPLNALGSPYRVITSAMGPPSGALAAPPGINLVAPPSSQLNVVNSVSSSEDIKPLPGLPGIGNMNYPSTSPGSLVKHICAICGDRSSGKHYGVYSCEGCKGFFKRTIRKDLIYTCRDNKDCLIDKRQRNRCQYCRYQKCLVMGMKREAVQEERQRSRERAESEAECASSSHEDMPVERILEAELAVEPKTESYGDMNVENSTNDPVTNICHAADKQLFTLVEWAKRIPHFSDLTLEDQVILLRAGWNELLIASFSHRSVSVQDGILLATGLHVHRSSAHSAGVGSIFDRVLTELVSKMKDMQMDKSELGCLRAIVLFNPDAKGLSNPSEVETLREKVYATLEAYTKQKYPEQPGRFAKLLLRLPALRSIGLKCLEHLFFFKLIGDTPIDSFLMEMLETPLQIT

For the compound `CC1(C)CCC(C)(C)c2cc(C3(c4ccc(C(=O)O)cc4)OCCO3)ccc21` [panRXR agonist], the “number of cells in percent relative to cells grown in 0.1% ethanol” value in the assay on RXRα−/−/RARα−/− F9 cells [1] (1 μM), in the assay on WT F9 cells [6] (1 μM), in the assay on RARγ−/− F9 cells [7] (1 μM), with RARα−/− F9 cells [8] (1 μM), in the assay on RXRα−/−/RARγ−/− F9 cells (1 μM) and in the assay on RXRα−/− F9 cells [9] (1 μM) was 100% each time. Besides, the “proportion of outer layer of cells displaying VE morphology” value with WT F9 cells [2] (1 μM), in the assay on RARα−/− F9 cells [3] (1 μM) and in the assay on RARγ−/− F9 cells [10] (1 μM) was “(−)” in each case. Further, the “proportion of apoptotic nuclei and subcellular fragments (Hoechst 33258)” value (shortened to “proportion … (Hoechst 33258)”) in the assay on WT F9 cells [4] (1 μM), in the assay with RARγ−/− F9 cells [5] (1 μM) and in the assay with RARα−/− F9 cells [11] (1 μM) was “(−)” throughout.
For the compound `CC1(C)CCC(C)(C)c2cc(NC(=O)c3ccc(C(=O)O)cc3)ccc21` [panRAR agonist], the “proportion … (Hoechst 33258)” value in the assay with RXRα−/−/RARα−/− F9 cells [12] is listed as “±* (asterisks less than that in combination with 1 μM panRXR agonist)”; in the assay on WT F9 cells [4] (100 nM) it was “+ (>1-10%)”; in the assay with RARγ−/− F9 cells [5] (100 nM), “± (<1%)”; with RXRα−/− F9 cells [13] it was “±* (asterisks less than that in combination with 1 μM panRXR agonist)”; in the assay with RARα−/− F9 cells [11] (100 nM), “+ (>1-10%)”.
`CC1(C)CC=C(c2ccccc2)c2cc(/C=C/c3ccc(C(=O)O)cc3)ccc21` [RARβ agonist]: the “number of cells in percent relative to cells grown in 0.1% ethanol” value in the assay on RXRα−/−/RARα−/− F9 cells [1] (500 nM), with WT F9 cells [6] (50 nM), in the assay with WT F9 cells [6] (500 nM), in the assay on RARγ−/− F9 cells [7] (50 nM), with RARγ−/− F9 cells [7] (500 nM) and in the assay with RARα−/− F9 cells [8] (500 nM) was 100% in each case. Further, the “number of cells in percent relative to cells grown in 0.1% ethanol” value in the assay on RXRα−/−/RARγ−/− F9 cells (500 nM) is 120%; in the assay with RXRα−/− F9 cells [9] (50 nM), 100%; in the assay with RXRα−/− F9 cells [9] (500 nM), 100%. Further, the entries for the “proportion of outer layer of cells displaying VE morphology” value in the assay with WT F9 cells [2] (500 nM), in the assay on RARα−/− F9 cells [3] (500 nM) and with RARγ−/− F9 cells [10] (500 nM) were “(−)”, “(−)” and “± (not more than 10%)”, respectively. The “proportion … (Hoechst 33258)” value with WT F9 cells [4] (500 nM), with RARγ−/− F9 cells [5] (500 nM) and in the assay with RARα−/− F9 cells [11] (500 nM) was “(−)” each time.
With “mouse RARα (from UniProt P11416 1-462) (receptor)”, in the assay with mouse RXRγ (mouse), the CAT activity of the C1 reporter (D2R promoter) in COS-1 cells cotransfected with RARα and RXRγ, in the presence of t-RA and 9-cis-RA was found to be 45 fold; the CAT activity of the C2 reporter in COS-1 cells coexpressing RARα/RXRγ, in the presence of t-RA and 9-cis-RA worked out at 66 fold; the CAT activity of the C3 reporter (D2R RARE upstream of the TK promoter) in COS-1 cells cotransfected with RARα/RXRγ, in the presence of t-RA and 9-cis-RA stood at 11 fold.
In the case of `CC1(C)C(=O)C(C)(C)c2cc(C(=O)Nc3ccc(C(=O)O)cc3)ccc21` [RARα agonist], the “number of cells in percent relative to cells grown in 0.1% ethanol” value with RXRα−/−/RARα−/− F9 cells [1] (10 nM), with RXRα−/−/RARα−/− F9 cells [1] (100 nM), in the assay on WT F9 cells [6] (10 nM), in the assay with WT F9 cells [6] (100 nM), in the assay with RARγ−/− F9 cells [7] (10 nM) and in the assay on RARγ−/− F9 cells [7] (100 nM) was 100% in each case. The “number of cells in percent relative to cells grown in 0.1% ethanol” value amounted to 100% with RARα−/− F9 cells [8] (10 nM); 100% in the assay with RARα−/− F9 cells [8] (100 nM); 124% with RXRα−/−/RARγ−/− F9 cells (10 nM); 143% with RXRα−/−/RARγ−/− F9 cells (100 nM); 100% in the assay on RXRα−/− F9 cells [9] (10 nM); 100% in the assay with RXRα−/− F9 cells [9] (100 nM). Moreover, the “proportion of outer layer of cells displaying VE morphology” value in the assay with WT F9 cells [2] (10 nM) is listed as “(−)”; in the assay on WT F9 cells [2] (100 nM), “(−)”; in the assay on RARα−/− F9 cells [3] (100 nM), “(−)”; with RARγ−/− F9 cells [10] (10 nM), “(−)”; in the assay on RARγ−/− F9 cells [10] (100 nM), “± (not more than 10%)”. Also, the “proportion … (Hoechst 33258)” value with WT F9 cells [4] (100 nM), in the assay with RARγ−/− F9 cells [5] (100 nM) and in the assay with RARα−/− F9 cells [11] (100 nM) was “(−)” throughout.
